Among the test systems are Escherichia coli AB94012; Staphylococcus aureus; Escherichia coli 078; Acinetobacter baumannii; Escherichia coli K88; Escherichia coli; Escherichia coli UB1005; Escherichia coli K99.
Assay in all cases: ≥ marks a high value that may be exact or a test limit, other limits are often not marked, values filed in µg/mL are converted to µM
Test [1] deals with Staphylococcus aureus VISA3.
Test [2] concerns Staphylococcus aureus VRSA2.
In test [3] the test system is Enterococcus faecium BCRC 15B0132.
Test [4] relates to Escherichia coli ATCC 25922.
Test [5] concerns Staphylococcus aureus VRSA1.
Test [6] concerns Staphylococcus aureus VISA1.
In test [7] the test system is Pseudomonas aeruginosa ATCC 9027.
Test [8] deals with Bacillus thuringiensis AB92037.
Test [9] has as its system Staphylococcus aureus P1389.
The subject of test [10] is Staphylococcus epidermidis AB208188.
Test [11] deals with Staphylococcus epidermidis AB208187.
Test [12] relates to Staphylococcus aureus P1374.
Test [13] relates to Staphylococcus aureus ATCC 6538.
The subject of test [14] is Micrococcus luteus AB93113.
The test system of test [15] is Staphylococcus aureus ATCC 25923.
In test [16] the test system is Staphylococcus aureus P1381.
For test [17], the system named is Bacillus subtilis AB91021.
Test [18] has as its system Staphylococcus aureus AB208193.
For test [19], the system named is Franconibacter helveticus DSM 18390.
Test [20] deals with Bacillus subtilis DSM 347.
The test system of test [21] is Staphylococcus xylosus DSM 20287.
In test [22] the test system is Escherichia coli DSM 1116.
Test [23] relates to Salmonella enterica subsp. enterica serovar Typhimurium ATCC 14028.
The test system of test [24] is Staphylococcus epidermidis ATCC 12228.
The test system of test [25] is Salmonella enterica subsp. enterica serovar Typhimurium C77-31.
Test [26] relates to Salmonella enterica subsp. enterica serovar Pullorum C79-13.
For test [27], the system named is Staphylococcus aureus ATCC 29213.
The test system of test [28] is Pseudomonas aeruginosa 25349.
In test [29] the test system is Enterococcus faecalis ATCC 29212.
For test [30], the system named is Bacillus subtilis CMCC 63501.
Test [31] relates to Candida parapsilosis ATCC 22019.
The subject of test [32] is Candida albicans ATCC 24433.
For test [33], the system named is Trichophyton rubrum ATCC 28189.

Values after ≈ are worked out from the molar mass of the structure shown. A value given as a limit tells only on which side of the number the result lay.

For five compounds, MIC results are on record in DBAASP.

By MIC is commonly meant the smallest concentration in the dilution series that meets the test's criterion for growth inhibition. Read a high MIC as a need for much substance. For `CC(=O)N[C@@H](C)C(=O)N[C@@H](CCCCN)C(=O)N[C@@H](CCCN=C(N)N)C(=O)N[C@@H](Cc1ccccc1)C(=O)N[C@@H](Cc1ccccc1)C(=O)NCC(=O)N[C@@H](Cc1ccc(O)cc1)C(=O)N[C@@H](CCCCN)C(=O)N[C@@H](CCCN=C(N)N)C(=O)N[C@@H](CCCCN)C(=O)N[C@@H](Cc1ccccc1)C(=O)N[C@@H](Cc1ccccc1)C(N)=O` [AKRFFGYKRKFF], the MIC was ≥ 40.1 µM in test [1]; ≥ 40.1 µM in test [2]; ≥ 40.1 µM in test [3]; 40.1 µM (≈ 65.6 µg/mL) in [4]; ≥ 40.1 µM in [5]; ≥ 40.1 µM in test [6].

As for `CC[C@H](C)[C@H](NC(=O)[C@H](CCCCN)NC(=O)[C@@H](NC(=O)[C@H](C)NC(=O)[C@H](CC(C)C)NC(=O)[C@H](CCCCN)NC(=O)[C@H](Cc1ccccc1)NC(=O)[C@H](CC(C)C)NC(=O)[C@H](Cc1cnc[nH]1)NC(=O)CNC(=O)[C@H](Cc1ccccc1)NC(=O)[C@@H](N)Cc1ccccc1)[C@@H](C)O)C(=O)N[C@H](C(=O)N1CCC[C@H]1C(=O)N[C@@H](CO)C(=O)N[C@@H](CC(C)C)C(=O)N[C@@H](Cc1ccccc1)C(=O)N[C@@H](CCCN=C(N)N)C(=O)O)[C@@H](C)CC` [FFGHLFKLATKIIPSLFR], the minimum inhibitory concentration (MIC) in [7] turned out to be 5.9 µM (≈ 12.6 µg/mL); in [8], 2.9 µM (≈ 6.19 µg/mL); in test [9], 2.9 µM (≈ 6.19 µg/mL); in test [10], 2.9 µM (≈ 6.19 µg/mL); in test [11] it was 2.9 µM (≈ 6.19 µg/mL); in test [12] it was 2.9 µM (≈ 6.19 µg/mL). Besides, the MIC came out at 1.5 µM (≈ 3.2 µg/mL) in test [13]; 23.4 µM (≈ 50 µg/mL) in test [14]; 2.9 µM (≈ 6.19 µg/mL) in [15]; 5.9 µM (≈ 12.6 µg/mL) in test [4]; 11.7 µM (≈ 25 µg/mL) in the test on Escherichia coli AB94012; 1.5 µM (≈ 3.2 µg/mL) in test [16]. Besides, the MIC in test [17] and in test [18] was 2.9 µM (≈ 6.19 µg/mL) in each case.

Take `CC[C@H](C)[C@H](N)C(=O)N[C@@H](C)C(=O)N[C@@H](CCCCN)C(=O)N[C@H](C(=O)N[C@@H](C)C(=O)NCC(=O)N[C@@H](CCCCN)C(=O)N[C@H](C(=O)N[C@@H](C)C(=O)N[C@@H](CCCCN)C(=O)N[C@H](C(=O)N[C@@H](C)C(=O)NCC(=O)N[C@@H](CCCCN)C(=O)N[C@H](C(=O)N[C@@H](C)C(=O)N[C@@H](CCCCN)C(=O)N[C@H](C(=O)N[C@@H](C)C(=O)NCC(=O)N[C@@H](CCCCN)C(=O)N[C@H](C(=O)N[C@@H](C)C(=O)N[C@@H](CCCCN)C(N)=O)[C@@H](C)CC)[C@@H](C)CC)[C@@H](C)CC)[C@@H](C)CC)[C@@H](C)CC)[C@@H](C)CC` [IAKIAGKIAKIAGKIAKIAGKIAK]: the MIC worked out at 1.19 µM (≈ 2.83 µg/mL) in [19], 0.842 µM (≈ 2 µg/mL) in [20], 0.842 µM (≈ 2 µg/mL) in [21] and 1.68 µM (≈ 4 µg/mL) in [22].

Take `CC[C@H](C)[C@H](NC(=O)[C@H](Cc1c[nH]c2ccccc12)NC(=O)[C@H](CCCCN)NC(=O)[C@H](CC(C)C)NC(=O)[C@@H](NC(=O)[C@H](CCCCN)NC(=O)CNC(=O)[C@@H](NC(=O)[C@H](CCCCN)NC(=O)[C@H](Cc1c[nH]c2ccccc12)NC(=O)[C@H](CC(C)C)NC(=O)[C@@H](N)CCCN=C(N)N)[C@@H](C)CC)C(C)C)C(N)=O` [RLWKIGKVLKWI]: the MIC in [23] turned out to be 2 µM (≈ 3.08 µg/mL); in [24] it was 4 µM (≈ 6.16 µg/mL); in test [25], 4 µM (≈ 6.16 µg/mL); in test [26] it was 1 µM (≈ 1.54 µg/mL); against Staphylococcus aureus, 2 µM (≈ 3.08 µg/mL); against Escherichia coli 078, 2 µM (≈ 3.08 µg/mL). Further, the minimum inhibitory concentration (MIC) in the test on Acinetobacter baumannii came out at 2 µM (≈ 3.08 µg/mL); in the test with Escherichia coli K88, 1 µM (≈ 1.54 µg/mL); against Escherichia coli, 2 µM (≈ 3.08 µg/mL); in test [27], 4 µM (≈ 6.16 µg/mL); in the test on Escherichia coli UB1005, 1 µM (≈ 1.54 µg/mL); in test [15], 2 µM (≈ 3.08 µg/mL). Further, the MIC amounted to 4 µM (≈ 6.16 µg/mL) in [28]; 2 µM (≈ 3.08 µg/mL) in [4]; 4 µM (≈ 6.16 µg/mL) in [29]; 1 µM (≈ 1.54 µg/mL) in [30]; 2 µM (≈ 3.08 µg/mL) against Escherichia coli K99.

`CC[C@H](C)[C@H](NC(=O)[C@H](CC(C)C)NC(=O)[C@H](CCC(=O)O)NC(=O)[C@H](CO)NC(=O)[C@H](CCCN=C(N)N)NC(=O)[C@@H](N)CO)C(=O)N[C@H](C(=O)N[C@@H](CCCN=C(N)N)C(=O)N[C@@H](CCC(N)=O)C(=O)N[C@@H](CCCN=C(N)N)C(=O)N[C@@H](CC(C)C)C(=O)N[C@@H](Cc1ccccc1)C(N)=O)C(C)C` [SRSELIVRQRLF]: the MIC in the test on Staphylococcus aureus was > 266 µM; in test [31] it was ≥ 266 µM; in [32], ≥ 266 µM; against Escherichia coli it was > 266 µM; in test [33], ≥ 266 µM.
